# Measurements taken from patent publication US10273267B2, “Beta-hairpin peptidomimetics as selective elastase inhibitors” (POLYPHOR AG, priority 2013, dated 2019).
# Where a SMILES comes first, the peptide text is derived from it. [ ]: non-standard residue; d: D form. Gly(octyl) = CCCCCCCC[C@H](N)C(=O)O
# What was measured:
# Type in all cases: biochemical
# [1] = molecular target: T1, human neutrophil elastase (Homo sapiens, UniProt P08246); experiment: Inhibition of human neutrophil elastase (hydrolysis of MeOSuc-AAPV-pNA); details: substrate MeOSuc-AAPV-pNA 0.3 mM, enzyme 10 nM, 37° C., pH 8; read-out: Human neutrophil elastase (hNE) IC50
# T1 construct: purchased Serva Electrophoresis, Germany
# T1 sequence (P08246 30-267): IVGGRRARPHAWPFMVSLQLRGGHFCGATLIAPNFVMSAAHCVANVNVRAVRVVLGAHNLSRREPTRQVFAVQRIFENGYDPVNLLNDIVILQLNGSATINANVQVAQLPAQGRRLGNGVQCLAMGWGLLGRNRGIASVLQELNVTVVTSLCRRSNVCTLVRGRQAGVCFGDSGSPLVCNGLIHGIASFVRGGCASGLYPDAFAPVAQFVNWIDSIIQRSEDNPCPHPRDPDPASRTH
# Procedure: 2.2 Inhibition of Human Neutrophil Elastase
# The ability of the peptides of the invention to inhibit the hydrolysis activity of human neutrophil elastase (Serva Electrophoresis, Germany) using the synthetic tetrapeptidic substrate MeOSuc-AAPV-pNA (Bachem, Switzerland) was determined as follows:
# (§1) The above substrate (0.3 mM) and human neutrophil elastase (10 nM) were incubated at 37° C. with serial dilutions of the peptides (1% DMSO final) in assay buffer (50 mM Tris, pH 8, 300 mM NaCl, 0.01% Tween20). The release of pNA was followed by monitoring the change in absorbance at 405 nm for 30 minutes. Control assays with the same assay set-up as above, but without peptide, ran linearly. The dose-response data were fitted to the 4-parameter Hill equation providing the IC50 value using Graphpad (Prism 5).
# [2] = molecular target: T2, porcine pancreatic elastase (Sus scrofa, UniProt P00772); experiment: Inhibition of porcine pancreatic elastase (hydrolysis of MeOSuc-AAA-pNA); details: for hNE/PPE selectivity: ratio of PPE IC50 to hNE IC50; for IC50: substrate MeOSuc-AAA-pNA 1 mM, enzyme 15 nM, 37° C., pH8, read-out: Porcine pancreatic elastase (PPE) IC50
# T2 construct: purchased Sigma, USA
# T2 sequence (P00772 27-266): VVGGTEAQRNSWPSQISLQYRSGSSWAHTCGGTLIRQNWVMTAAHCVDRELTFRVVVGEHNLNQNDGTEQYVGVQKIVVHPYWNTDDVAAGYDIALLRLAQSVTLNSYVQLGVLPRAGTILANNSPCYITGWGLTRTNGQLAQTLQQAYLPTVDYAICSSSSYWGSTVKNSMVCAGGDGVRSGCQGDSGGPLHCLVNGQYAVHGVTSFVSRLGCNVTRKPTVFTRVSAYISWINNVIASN
# Procedure: 2.3 Inhibition of Porcine Pancreatic Elastase
# The ability of the peptides of the invention to inhibit the hydrolysis activity of porcine pancreatic elastase (Sigma, USA) using the synthetic tripeptidic substrate MeOSuc-AAA-pNA (Bachem, Switzerland) was determined as follows:
# as §1, with “(1” for “(0.3”, “porcine pancreatic” for “neutrophil”, “(15” for “(10”, “(0.5%” for “(1%”, “pH8, 100” for “pH 8, 300”
# human proteinase 3 = molecular target: T3, human proteinase 3 (Homo sapiens, UniProt P24158); experiment: Inhibition of human proteinase 3 (substrate Boc-Ala-Ala-Nva-SBzl); details: for hNE/hPr3 selectivity: ratio of hPr3 IC50 to hNE IC50; for IC50: substrate Boc-Ala-Ala-Nva-SBzl 1 mM, enzyme 10 nM, 37° C., pH7.4, read-out: Human proteinase 3 (hPr3) IC50
# T3 construct: purchased Elastin Products Company, USA
# T3 sequence (P24158 28-248): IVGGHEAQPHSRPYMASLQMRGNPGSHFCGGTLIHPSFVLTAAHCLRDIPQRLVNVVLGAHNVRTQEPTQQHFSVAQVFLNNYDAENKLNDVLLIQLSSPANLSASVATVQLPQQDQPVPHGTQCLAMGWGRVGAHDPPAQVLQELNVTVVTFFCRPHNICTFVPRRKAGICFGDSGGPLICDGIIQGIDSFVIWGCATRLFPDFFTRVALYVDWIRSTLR
# Procedure: 2.4 Inhibition of Human Proteinase 3
# The inactivation of human proteinase 3 (Elastin Products Company, USA) by the peptides of the invention using synthetic tripeptidic substrate Boc-Ala-Ala-Nva-SBzl (Elastin Products Company, USA) was determined as follows:
# as §1, with “(1 mM), 4,4′-dithiodipyridine (250 μM)” for “(0.3 mM)”, “proteinase 3” for “neutrophil elastase”, “(0.5%” for “(1%”, “pH7.4, 150” for “pH 8, 300”, “reaction process” for “release of pNA”, “340” for “405”
IC50 [1] [µM],hNE/PPE selectivity [2],IC50 [2] [µM],hNE/hPr3 selectivity (human proteinase 3),IC50 (human proteinase 3) [µM],Structure (SMILES)
0.0129,822,10.6,1008,13,"CCCCCCCC[C@@H]1NC(=O)[C@H](Cc2ccc(O)cc2)NC(=O)[C@@H](C(C)C)NC(=O)[C@H]([C@@H](C)O)NC(=O)[C@H](CCCCN)NC(=O)[C@H](CCC(N)=O)NC(=O)[C@@H]2CCCN2C(=O)[C@@H]2CCCN2C(=O)[C@H]([C@@H](C)CC)NC(=O)[C@H](CO)NC(=O)[C@H](C)NC(=O)[C@H]([C@@H](C)O)NC(=O)[C@H](CCC(=O)O)NC1=O [Example 21, Cyclo(-OctGly-Glu-Thr-Ala-Ser-Ile-Pro-Pro-GI n-Lys-Thr-^DVal-Tyr-)] (cyclo([Gly(octyl)]ETASIPPQKT[dV]Y))"
0.0106,4415,46.8,472,5,"CCCCCCCC[C@@H]1NC(=O)[C@H](C(C)C)NC(=O)[C@@H](CCCCN)NC(=O)[C@H]([C@@H](C)O)NC(=O)[C@H](CCCCN)NC(=O)[C@H](CCC(N)=O)NC(=O)[C@@H]2CCCN2C(=O)[C@@H]2CCCN2C(=O)[C@H]([C@@H](C)CC)NC(=O)[C@H](CO)NC(=O)[C@H](C)NC(=O)[C@H]([C@@H](C)O)NC(=O)[C@H](CCC(=O)O)NC1=O [Example 26, Cyclo(-OctGly-Glu-Thr-Ala-Ser-Ile-Pro-Pro-GI n-Lys-Thr-^DLys-Val-)] (cyclo([Gly(octyl)]ETASIPPQKT[dK]V))"
0.0101,4366,44.1,3921,39.6,"CCCCCCCC[C@@H]1NC(=O)[C@H](Cc2ccc(O)cc2)NC(=O)[C@@H](CCCCN)NC(=O)[C@H]([C@@H](C)O)NC(=O)[C@H](CCCCN)NC(=O)[C@H](CCC(N)=O)NC(=O)[C@@H]2CCCN2C(=O)[C@@H]2CCCN2C(=O)[C@H]([C@@H](C)CC)NC(=O)[C@H](CO)NC(=O)[C@H](C)NC(=O)[C@H]([C@@H](C)O)NC(=O)[C@H](CCC(=O)O)NC1=O [Example 27, Cyclo(-OctGly-Glu-Thr-Ala-Ser-Ile-Pro-Pro-GI n-Lys-Thr-^DLys-Tyr-)] (cyclo([Gly(octyl)]ETASIPPQKT[dK]Y))"
0.012,4267,51.2,1192,14.3,"CCCCCCCC[C@@H]1NC(=O)[C@H](C(C)C)NC(=O)[C@@H](CO)NC(=O)[C@H]([C@@H](C)O)NC(=O)[C@H](CCCCN)NC(=O)[C@H](CCC(N)=O)NC(=O)[C@@H]2CCCN2C(=O)[C@@H]2CCCN2C(=O)[C@H]([C@@H](C)CC)NC(=O)[C@H](CO)NC(=O)[C@H](C)NC(=O)[C@H]([C@@H](C)O)NC(=O)[C@H](CCC(=O)O)NC1=O [Example 30, Cyclo(-OctGly-Glu-Thr-Ala-Ser-Ile-Pro-Pro-Gln-Lys-Thr-^DSer-Val-)] (cyclo([Gly(octyl)]ETASIPPQKT[dS]V))"

# Second part, the compound before the results:
Structure (SMILES),IC50 [1] [µM],hNE/PPE selectivity [2],IC50 [2] [µM],hNE/hPr3 selectivity (human proteinase 3),IC50 (human proteinase 3) [µM]
"CCCCCCCC[C@@H]1NC(=O)[C@H](CCCCN)NC(=O)[C@@H](C(C)C)NC(=O)[C@H]([C@@H](C)O)NC(=O)[C@H](CCCCN)NC(=O)[C@H](CCC(N)=O)NC(=O)[C@@H]2CCCN2C(=O)[C@@H]2CCCN2C(=O)[C@H]([C@@H](C)CC)NC(=O)[C@H](CO)NC(=O)[C@H](C)NC(=O)[C@H]([C@@H](C)O)NC(=O)[C@H](CCC(=O)O)NC1=O [Example 22, Cyclo(-OctGly-Glu-Thr-Ala-Ser-Ile-Pro-Pro-Gln-Lys-Thr-^DVal-Lys-)] (cyclo([Gly(octyl)]ETASIPPQKT[dV]K))",0.0124,4847,60.1,5677,70.4
"CCCCCCCC[C@@H]1NC(=O)[C@H](C(C)C)NC(=O)[C@@H](Cc2ccc(O)cc2)NC(=O)[C@H]([C@@H](C)O)NC(=O)[C@H](CCCCN)NC(=O)[C@H](CCC(N)=O)NC(=O)[C@@H]2CCCN2C(=O)[C@@H]2CCCN2C(=O)[C@H]([C@@H](C)CC)NC(=O)[C@H](CO)NC(=O)[C@H](C)NC(=O)[C@H]([C@@H](C)O)NC(=O)[C@H](CCC(=O)O)NC1=O [Example 23, Cyclo(-OctGly-Glu-Thr-Ala-Ser-Ile-Pro-Pro-Gln-Lys-Thr-^DTyr-Val-)] (cyclo([Gly(octyl)]ETASIPPQKT[dY]V))",0.006,1717,10.3,1717,10.3
"CCCCCCCC[C@@H]1NC(=O)[C@H](Cc2ccc(O)cc2)NC(=O)[C@@H](Cc2ccc(O)cc2)NC(=O)[C@H]([C@@H](C)O)NC(=O)[C@H](CCCCN)NC(=O)[C@H](CCC(N)=O)NC(=O)[C@@H]2CCCN2C(=O)[C@@H]2CCCN2C(=O)[C@H]([C@@H](C)CC)NC(=O)[C@H](CO)NC(=O)[C@H](C)NC(=O)[C@H]([C@@H](C)O)NC(=O)[C@H](CCC(=O)O)NC1=O [Example 24, Cyclo(-OctGly-Glu-Thr-Ala-Ser-Ile-Pro-Pro-Gln-Lys-Thr-^DTyr-Tyr-)] (cyclo([Gly(octyl)]ETASIPPQKT[dY]Y))",0.0116,1112,12.9,664,7.7
"CCCCCCCC[C@@H]1NC(=O)[C@H](CCCCN)NC(=O)[C@@H](Cc2ccc(O)cc2)NC(=O)[C@H]([C@@H](C)O)NC(=O)[C@H](CCCCN)NC(=O)[C@H](CCC(N)=O)NC(=O)[C@@H]2CCCN2C(=O)[C@@H]2CCCN2C(=O)[C@H]([C@@H](C)CC)NC(=O)[C@H](CO)NC(=O)[C@H](C)NC(=O)[C@H]([C@@H](C)O)NC(=O)[C@H](CCC(=O)O)NC1=O [Example 25, Cyclo(-OctGly-Glu-Thr-Ala-Ser-Ile-Pro-Pro-GI n-Lys-Thr-^DTyr-Lys-)] (cyclo([Gly(octyl)]ETASIPPQKT[dY]K))",0.0064,7031,45,6531,41.8
"CCCCCCCC[C@@H]1NC(=O)[C@H](CCCCN)NC(=O)[C@@H](CCCCN)NC(=O)[C@H]([C@@H](C)O)NC(=O)[C@H](CCCCN)NC(=O)[C@H](CCC(N)=O)NC(=O)[C@@H]2CCCN2C(=O)[C@@H]2CCCN2C(=O)[C@H]([C@@H](C)CC)NC(=O)[C@H](CO)NC(=O)[C@H](C)NC(=O)[C@H]([C@@H](C)O)NC(=O)[C@H](CCC(=O)O)NC1=O [Example 28, Cyclo(-OctGly-Glu-Thr-Ala-Ser-Ile-Pro-Pro-GI n-Lys-Thr-^DLys-Lys-)] (cyclo([Gly(octyl)]ETASIPPQKT[dK]K))",0.012,>8333,> 100,>8333,> 100
"CCCCCCCC[C@@H]1NC(=O)[C@H](CCC(=O)O)NC(=O)[C@@H](CCCCN)NC(=O)[C@H]([C@@H](C)O)NC(=O)[C@H](CCCCN)NC(=O)[C@H](CCC(N)=O)NC(=O)[C@@H]2CCCN2C(=O)[C@@H]2CCCN2C(=O)[C@H]([C@@H](C)CC)NC(=O)[C@H](CO)NC(=O)[C@H](C)NC(=O)[C@H]([C@@H](C)O)NC(=O)[C@H](CCC(=O)O)NC1=O [Example 29, Cyclo(-OctGly-Glu-Thr-Ala-Ser-Ile-Pro-Pro-Gln-Lys-Thr-^DLys-Glu-)] (cyclo([Gly(octyl)]ETASIPPQKT[dK]E))",0.0118,1085,12.8,5305,62.6
